Among the data in patent US7157495B2, “Hexahydrofuro[2,3-B]furan-3-YL-N-{3-[(1,3-benzodioxol-5-ylsulfonyl)(isobutyl)amino]-1-benzyl-2-hydroxypropyl}carbamate as retroviral protease inhibitor” (Tibotec Pharmaceuticals, Ltd., priority 1999, dated 2007) are IC50 values, retold here.

What all share (format): cell-based
In one experiment the test system is HIV-1 strain LAI. The experiment is described as follows: Cellular anti-HIV assay in MT4 cells (MTT). The method, then: (§1) HIV- or mock-infected MT4 cells were incubated for five days in the presence of various concentrations of the inhibitor. At the end of the incubation period, all HIV-infected cells have been killed by the replicating virus in the control cultures in the absence of any inhibitor. Cell viability is measured by measuring the concentration of MTT, a yellow, water soluble tetrazolium dye that is converted to a purple, water insoluble formazan in the mitochondria of living cells only. Upon solubilization of the resulting formazan crystals with isopropanol, the absorbance of the solution is monitored at 540 nm. The values correlate directly to the number of living cells remaining in the culture at the completion of the five day incubation. The inhibitory activity of the compound was monitored on the virus-infected cells and was expressed as IC50 and IC90. These values represent the amount of the compound required to protect 50% and 90%, respectively, of the cells from the cytopathogenic effect of the virus. The toxicity of the compound was measured on the mock-infected cells and was expressed as CC50, which represents the concentration of compound required to inhibit the growth of the cells by 50%. The select index (SI) (ratio CC50/IC50) is an indication of the selectivity of the anti-HIV activity of the inhibitor.

A further experiment concerns HIV strain r13036. Nature of the experiment: Antiviral spectrum, protease inhibitor resistant strain. The settings on record: Human immunodeficiency virus 1, strain r13036; L10I, L63P, A71V, G73S, L90M. The method, then: as §1
(§2) Because of the increasing emergence of drug resistant HIV strains, compound 13 and compound 14 were tested for its potency against HIV strains harbouring several mutations. These mutations are associated with resistance to protease inhibitors and result in viruses that show various degrees of phenotypic cross-resistance to five of the currently commercially available drugs (Saquinavir, Ritonavir, Nelfinavir, Indinavir and Amprenavir).

The next experiment relates to HIV strain r13034. Described as above. The settings on record: Human immunodeficiency virus 1, strain r13034; L10I, M36I, I54V, L63P, A71V, I84V. On the procedure: as §1, §2
A further experiment has as its system HIV strain r13029. Described as above. The following applies: Human immunodeficiency virus 1, strain r13029; L10I/L, M36I, M46L, L63P, A71V, I84V, N88D, L90M. The method, then:
as §1, §2

The test system of another experiment is HIV strain r13027. Described as above. The following applies: Human immunodeficiency virus 1, strain r13027; L10M/I, K20R, M36I, L63P, A71V, G73S, V77I, I84V, L90M. On the procedure:
as §1, §2

For another experiment, the system named is HIV strain r13025. Described as above. The settings on record: Human immunodeficiency virus 1, strain r13025; L10I, M46I, L63P, A71V, I84V. The method, then:
as §1, §2

The test system of the next experiment is HIV strain r13024. The experiment is described as above. The settings on record: Human immunodeficiency virus 1, strain r13024; L10I, M36I, L63P, A71V, G73S, I84V, L90M. On the procedure: as §1, §2
The subject of a further experiment is HIV strain r13033. The description is as above. The following applies: Human immunodeficiency virus 1, strain r13033; L10I, M46L, I54V, L63P, A71V, V82A, L90M. On the procedure:
as §1, §2

The next experiment has as its system HIV strain r13030. Described as above. The following applies: Human immunodeficiency virus 1, strain r13030; L10V/I, M36I, I54V, L63P, A71V, V82T, L90M. The method, then:
as §1, §2

Another experiment deals with HIV strain r13026. The experiment is described as above. The following applies: Human immunodeficiency virus 1, strain r13026; L10I, M46I, I54V, L63P, A71V, V82T, I84V. The method, then: as §1, §2
The next experiment has as its system HIV strain r13022. Described as above. The settings on record: Human immunodeficiency virus 1, strain r13022; K20R, M36I, M46I/M, 154V, L63P, A71V/I, V82T, L90M. On the procedure: as §1, §2
For the next experiment, the system named is HIV strain r13021. Described as above. The settings on record: L10I, K20R, L24I, M36I, I54V, L63P, A71V, V82T, I84V. The method, then:
as §1, §2

The test system of the next experiment is HIV strain r13037. Described as above. The settings on record: Human immunodeficiency virus 1, strain r13037; L10I, M46I, I54V, L63P, A71T, V77I, V82A, L90M. On the procedure:
as §1, §2

The subject of another experiment is HIV strain r13023. The experiment is described as above. The following applies: L10I, M36I/M, I54V/I, L63P, A71V, G73S, I84V, L90M. On the procedure: as §1, §2
A further experiment deals with HIV strain r13020. The description is as above. The following applies: Human immunodeficiency virus 1, strain r13020; L10I, K20R, M36I, 154V, A71V, V82T, 184V. The method, then: as §1, §2
The test system of a further experiment is HIV strain r13031. The description is as above. The settings on record: Human immunodeficiency virus 1, strain r13031; G48V, I54V, V77I, V82A, L90M/L. The method, then: as §1, §2
The next experiment has as its system HIV strain r13035. Described as above. The settings on record: Human immunodeficiency virus 1, strain r13035; D30N, L63P, V77I, N88D. The method, then: as §1, §2
Where [1] appears, read: Human immunodeficiency virus 1, MT4, strain LAI, read-out: IC50.
The mark [2] stands for this setting: Human immunodeficiency virus 1, strain r13021.
The mark [3] stands for this setting: Human immunodeficiency virus 1, strain r13023.

Where two headings read alike, the source gives them in different places.

`CC(C)CN(C[C@@H](O)[C@H](Cc1ccccc1)NC(=O)O[C@H]1CCOC1)S(=O)(=O)c1ccc(N)cc1` [AMP, Amprenavir]: the IC50 (in general, the concentration that inhibits the measured activity by half) stood at 35.9 nM with HIV-1 strain LAI (setting [1]); 445 nM in the experiment with HIV strain r13036; 677 nM in the experiment with HIV strain r13034; 214 nM in the experiment on HIV strain r13029; 645 nM in the experiment on HIV strain r13027; 661 nM in the experiment on HIV strain r13025. Also, the IC50 in the experiment on HIV strain r13024 is 180 nM; in the experiment with HIV strain r13033 it was 194 nM; in the experiment on HIV strain r13030, 49.1 nM; with HIV strain r13026, 136 nM; in the experiment on HIV strain r13022, 181 nM; in the experiment with HIV strain r13021 (setting [2]), 212 nM. Further, the IC50 in the experiment on HIV strain r13037 worked out at 165 nM; with HIV strain r13023 (setting [3]), 217 nM; with HIV strain r13020 it was 107 nM; in the experiment with HIV strain r13031 it was 34.1 nM; in the experiment with HIV strain r13035, 10.5 nM.
Regarding `CC(C)CN(CC(O)C(Cc1ccccc1)NC(=O)OC1COC2OCCC12)S(=O)(=O)c1ccc2c(c1)OCO2` (stereo not drawn) [Compound 14], the IC50 came to 0.8 nM in the experiment on HIV-1 strain LAI (setting [1]); 2.9 nM in the experiment with HIV strain r13036; 5.5 nM in the experiment with HIV strain r13034; 5.2 nM with HIV strain r13029; 7.3 nM with HIV strain r13027; 32.8 nM in the experiment with HIV strain r13025. The IC50 in the experiment on HIV strain r13024 stood at 5.5 nM; in the experiment with HIV strain r13033, 1.1 nM; with HIV strain r13030, 0.2 nM; with HIV strain r13026 it was 0.8 nM; in the experiment with HIV strain r13022 it was 1.1 nM; in the experiment with HIV strain r13021 (strain r13021), 1.5 nM. In addition, the IC50 in the experiment on HIV strain r13037 was determined as 0.5 nM; in the experiment on HIV strain r13023 (strain r13023), 2.8 nM; in the experiment with HIV strain r13020, 0.8 nM; in the experiment on HIV strain r13031, 0.3 nM; with HIV strain r13035, 0.2 nM.
Consider `CC(C)(C)NC(=O)[C@@H]1CN(Cc2cccnc2)CCN1C[C@@H](O)C[C@@H](Cc1ccccc1)C(=O)N[C@H]1c2ccccc2C[C@H]1O` [IND, Indinavir], for which the IC50 with HIV-1 strain LAI (setting [1]) turned out to be 27.6 nM; in the experiment on HIV strain r13036, 638 nM; in the experiment with HIV strain r13034, 638 nM; in the experiment with HIV strain r13029, 922 nM; in the experiment with HIV strain r13027, 714 nM; in the experiment with HIV strain r13025 it was 1250 nM. In addition, the IC50 with HIV strain r13024 was 1070 nM; with HIV strain r13033, 848 nM; with HIV strain r13030 it was 574 nM; with HIV strain r13026 it was 2720 nM; with HIV strain r13022, 1700 nM; in the experiment with HIV strain r13021 (setting [2]), 1750 nM. Further, the IC50 in the experiment with HIV strain r13037 worked out at 196 nM; in the experiment on HIV strain r13023 (setting [3]), 680 nM; in the experiment with HIV strain r13020 it was 1380 nM; in the experiment on HIV strain r13031 it was 154 nM; in the experiment on HIV strain r13035, 7.4 nM.
`Cc1c(O)cccc1C(=O)N[C@@H](CSc1ccccc1)[C@H](O)CN1C[C@H]2CCCC[C@H]2C[C@H]1C(=O)NC(C)(C)C` [NEL, Nelfinavir]: the IC50 with HIV-1 strain LAI (setting [1]) came out at 33.1 nM; with HIV strain r13036, 3250 nM; with HIV strain r13034, 1990 nM; with HIV strain r13029, 3790 nM; in the experiment with HIV strain r13027 it was 3200 nM; in the experiment on HIV strain r13025, 9130 nM. For the same compound, the IC50 in the experiment with HIV strain r13024 came out at 3260 nM; with HIV strain r13033, 1190 nM; with HIV strain r13030, 995 nM; in the experiment with HIV strain r13026, 1220 nM; with HIV strain r13022, 4030 nM; in the experiment with HIV strain r13021 (setting [2]), 4100 nM. Further, the IC50 with HIV strain r13037 stood at 656 nM; in the experiment with HIV strain r13023 (setting [3]), 1020 nM; in the experiment on HIV strain r13020 it was 3750 nM; in the experiment on HIV strain r13031, 497 nM; in the experiment with HIV strain r13035 it was 361 nM.
As to `CC(C)c1nc(CN(C)C(=O)N[C@H](C(=O)N[C@@H](Cc2ccccc2)C[C@H](O)[C@H](Cc2ccccc2)NC(=O)OCc2cncs2)C(C)C)cs1` [RIT, Ritonavir], the IC50 was 30.4 nM with HIV-1 strain LAI (setting [1]); 2830 nM with HIV strain r13036; greater than 10000 nM in the experiment on HIV strain r13034; 3600 nM in the experiment on HIV strain r13029; 3140 nM in the experiment on HIV strain r13027; 2240 nM with HIV strain r13025. The IC50 in the experiment on HIV strain r13024 is 2850 nM; with HIV strain r13033 it was 3470 nM; with HIV strain r13030 it was 2990 nM; with HIV strain r13026, greater than 10000 nM; in the experiment with HIV strain r13022, greater than 10000 nM; in the experiment on HIV strain r13021 (setting [2]), greater than 10000 nM. Also, the IC50 with HIV strain r13037 was found to be 2720 nM; in the experiment on HIV strain r13023 (setting [3]), 3820 nM; in the experiment with HIV strain r13020, 9280 nM; in the experiment with HIV strain r13031 it was 856 nM; in the experiment on HIV strain r13035, 31.1 nM.
As for `CC(C)(C)NC(=O)[C@@H]1C[C@@H]2CCCC[C@@H]2CN1C[C@@H](O)[C@H](Cc1ccccc1)NC(=O)[C@H](CC(N)=O)NC(=O)c1ccc2ccccc2n1` [SAQ, Saquinavir], the IC50 stood at 7.9 nM in the experiment with HIV-1 strain LAI (Human immunodeficiency virus 1, MT4); 514 nM in the experiment with HIV strain r13036; 1010 nM with HIV strain r13034; 2610 nM in the experiment on HIV strain r13029; 2920 nM in the experiment on HIV strain r13027; 157 nM with HIV strain r13025. Moreover, the IC50 in the experiment with HIV strain r13024 was 2090 nM; in the experiment on HIV strain r13033 it was 52.1 nM; with HIV strain r13030 it was 173 nM; in the experiment on HIV strain r13026, 1990 nM; in the experiment with HIV strain r13022, 665 nM; in the experiment on HIV strain r13021 (setting [2]), 1450 nM. In addition, the IC50 in the experiment on HIV strain r13037 came out at 27.4 nM; in the experiment on HIV strain r13023 (setting [3]), 783 nM; in the experiment on HIV strain r13020, 3510 nM; in the experiment on HIV strain r13031 it was 673 nM; with HIV strain r13035, 5.3 nM.
